# Values of other authors as cited in patent publication US8541371B2, “Treatment of conditions related to cecal ligation shock” (The Regents of The University of California, priority 2009, dated 2013).
# Test system: shock
# Settings: shock patients, approved treatment
substance,measurement,value
drotrecogin alfa (activated) [XIGRIS],survival benefit,minor but confirmed survival benefit
